{
  "source": "patent US20100291221A1",
  "about": "“Method of administering dose-sparing amounts of formoterol fumarate-budesonide combination particles by inhalation” (priority 2009, published 2010)",
  "origin": "cited, not measured here",
  "key": {"adult asthmatics": {"tested_on": "adult asthmatics", "conditions": "inhaled"}, "[1]": {"conditions": "9 ug Formoterol Fumarate alone (2 puffs); first treatment day"}},
  "data": [
    {"smiles": "COc1ccc(C[C@@H](C)NC[C@H](O)c2ccc(O)c(NC=O)c2)cc1.COc1ccc(C[C@@H](C)NC[C@H](O)c2ccc(O)c(NC=O)c2)cc1.O=C(O)/C=C/C(=O)O", "note": "[Formoterol Fumarate, formoterol fumarate]", "values": [
      {"measurement": "Minimum efficacy dose", "setting": "adult asthmatics; adult asthmatics", "result": "approximately 4 micrograms"},
      {"measurement": "Level at which systemic b2 agonist effects begin to occur", "setting": "adult asthmatics", "result": "above 12 micrograms"},
      {"measurement": "Change in FEV1 at 15 minutes", "setting": "[1]", "result": 11, "unit": "%"},
      {"measurement": "Change in FEV1 at 120 minutes", "setting": "[1]", "result": 18, "unit": "%"}
    ]}
  ]
}
